Measurements from ChEMBL document CHEMBL1212895.

How the values were obtained:
[1] = molecular target: T1, Estrogen receptor (Homo sapiens) (UniProt P03372); settings: MCF7, 25 uM
T1 sequence (whole entry): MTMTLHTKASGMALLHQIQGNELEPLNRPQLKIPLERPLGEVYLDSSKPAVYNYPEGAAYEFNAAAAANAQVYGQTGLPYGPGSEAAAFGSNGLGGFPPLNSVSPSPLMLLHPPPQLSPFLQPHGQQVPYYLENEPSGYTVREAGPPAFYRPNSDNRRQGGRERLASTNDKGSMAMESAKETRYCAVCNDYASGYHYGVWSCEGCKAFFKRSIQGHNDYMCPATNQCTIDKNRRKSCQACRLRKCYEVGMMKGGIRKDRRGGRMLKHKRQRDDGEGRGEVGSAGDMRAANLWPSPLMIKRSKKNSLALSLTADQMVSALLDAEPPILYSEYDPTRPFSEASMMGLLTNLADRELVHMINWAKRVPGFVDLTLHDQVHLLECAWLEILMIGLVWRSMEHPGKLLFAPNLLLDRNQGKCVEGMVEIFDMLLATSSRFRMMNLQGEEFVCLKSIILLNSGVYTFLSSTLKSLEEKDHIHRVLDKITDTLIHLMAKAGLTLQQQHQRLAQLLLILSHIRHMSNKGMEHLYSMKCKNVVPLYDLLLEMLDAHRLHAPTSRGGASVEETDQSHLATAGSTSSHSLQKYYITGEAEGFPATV

[2] = molecular target: T1, Estrogen receptor (Homo sapiens); settings: MCF7, 10 uM

inhibition [1] [%] | inhibition [2] [%] | SMILES
18.8 |  | CCOc1ccc2c(=O)c(-c3ccc(O)cc3)coc2c1
 | 17.2 | O=c1c(-c2ccc(O)cc2)coc2cc(O)ccc12
68.1 | 33.4 | CC(C)Oc1ccc2c(=O)c(-c3ccc(O)cc3)coc2c1
49.8 |  | CCCCOc1ccc2c(=O)c(-c3ccc(O)cc3)coc2c1
89.8 | 54.1 | O=c1c(-c2ccc(O)cc2)coc2cc(OC3CCCC3)ccc12
100 | 54.6 | CC1(C)C=Cc2c(ccc3c(=O)c(-c4ccc(O)cc4)coc23)O1
33.2 |  | COc1ccc2c(=O)c(-c3ccc(O)cc3)coc2c1
46.4 |  | CCCCCCOc1ccc2c(=O)c(-c3ccc(O)cc3)coc2c1
91.3 | 60.5 | CC(C)COc1ccc2c(=O)c(-c3ccc(O)cc3)coc2c1
41.4 |  | CCCOc1ccc2c(=O)c(-c3ccc(O)cc3)coc2c1
